Test [1] can be described thus: Fermentation of first milk substrate (dried skimmed milk powder), pH monitoring. The note with it: incubated at 30° C. The protocol:
(§1) Lactic acid producing bacteria listed in Table 1 were tested for their ability to ferment two milk substrates according to the following procedures:
(§2) A commercially available dried skimmed milk powder was prepared according to the manufacturer's instructions to provide a first milk substrate. A milk replacer for calves (70 g) was mixed with water (100 g) to provide a second milk substrate. Both substrates were placed in a steamer for 30 minutes/day for each of 3 days for sterilisation.
(§3) Each lactic acid producing bacteria was grown in MRS broth (ex Oxoid) for 24 hours at 37° C.
(§4) 100 ml of each milk substrate was inoculated with 100 μl of the culture of each lactic acid producing bacteria. The samples were incubated at 30° C. for 48 hours. The ability of the bacteria to ferment the milk substrate was determined by monitoring the pH at intervals during the incubation of 0, 8, 24, 32 and 48 hours, with a reduction in the pH indicating the production of lactic acid. The results for the first and second milk substrates are set out in Tables 3 and 4 respectively.

Test [2] can be described thus: Fermentation of second milk substrate (milk replacer for calves), pH monitoring. To be noted: incubated at 30° C. Here is the method: as §1, §2, §3, §4

Experimental findings from patent US20130259844A1, “Fermented Foodstuff” (University of Plymouth, priority 2010, published 2013) are described below.

As for Lactobacillus plantarum [NCIMB 41605], the pH in test [1] (0 h) was determined as 6.69; in test [1] (8 h), 6.65; in test [1] (24 h) it was 6.09; in test [1] (32 h) it was 5.22; in test [1] (48 h), 4.60; in test [2] (0 h), 6.13. Moreover, the pH is 6.46 in test [2] (8 h), 6.51 in test [2] (24 h), 5.90 in test [2] (32 h) and 5.72 in test [2] (48 h).
Turning to Lactobacillus plantarum [NCIMB 41607], the pH in test [1] (0 h) was found to be 6.69; in test [1] (8 h) it was 6.62; in test [1] (24 h) it was 5.83; in test [1] (32 h), 5.08; in test [1] (48 h) it was 4.53; in test [2] (0 h) it was 5.54. Moreover, the pH stood at 5.69 in test [2] (8 h), 5.75 in test [2] (24 h), 5.61 in test [2] (32 h) and 4.80 in test [2] (48 h).
Turning to Lactobacillus plantarum [NCIMB 41608], the pH in test [1] (0 h) stood at 6.69; in test [1] (8 h), 6.65; in test [1] (24 h), 5.85; in test [1] (32 h) it was 4.96; in test [1] (48 h), 4.45; in test [2] (0 h), 6.12. The pH came out at 6.44 in test [2] (8 h), 6.50 in test [2] (24 h), 6.25 in test [2] (32 h) and 5.71 in test [2] (48 h).
For “Lactobacillus salivarius ss. Salivarius [NCIMB 41606]”, the pH came to 6.69 in test [1] (0 h); 6.61 in test [1] (8 h); 5.55 in test [1] (24 h); 4.76 in test [1] (32 h); 4.35 in test [1] (48 h); 5.82 in test [2] (0 h). Further, the pH turned out to be 6.03 in test [2] (8 h), 6.01 in test [2] (24 h), 5.92 in test [2] (32 h) and 5.37 in test [2] (48 h).
On to “Lactobacillus salivarius ss. Salivarius [NCIMB 41609]”, for which the pH is listed as 6.69 in test [1] (0 h); 6.62 in test [1] (8 h); 5.72 in test [1] (24 h); 4.98 in test [1] (32 h); 4.56 in test [1] (48 h); 5.55 in test [2] (0 h). In addition, the pH in test [2] (8 h) worked out at 5.69; in test [2] (24 h) it was 5.70; in test [2] (32 h), 5.58; in test [2] (48 h), 4.93.
In the case of “Lactobacillus salivarius ss. Salivarius [NCIMB 41610]”, the pH in test [1] (0 h) was 6.69; in test [1] (8 h) it was 6.68; in test [1] (24 h), 5.69; in test [1] (32 h) it was 4.96; in test [1] (48 h), 4.46; in test [2] (0 h), 5.55. In addition, the pH in test [2] (8 h) stood at 5.67; in test [2] (24 h) it was 5.72; in test [2] (32 h) it was 5.54; in test [2] (48 h), 4.76.
